Data published in publication PMC12427341, “Phytochemical-Mediated Modulation of Doramectin Pharmacology in Sheep: Exploring the Cinnamaldehyde–Pink Grapefruit Combination” (Animals : an Open Access Journal from MDPI, 2025).
Several values for one entry are separate records, joined by “and”; a condition that tells them apart may be missing. Equal entries are not always repeated. Marks after values point to notes of the source that are not given here.

How the values were obtained:
[1] = rats; cited from earlier work
[2] = test system: Syphacia muris; design: method as in doi:10.2478/acve-2018-0036; settings: rats infected with Syphacia muris; cited from earlier work
[3] = test system: Ascaris suum; design: method as in PMID 26420588; settings: pigs; cited from earlier work
[4] = test system: gastrointestinal nematodes; settings: cited from earlier work; for Efficacy of single phytochemicals: sheep, low to moderate efficacy
[5] = test system: C. elegans; design: method as in doi:10.1155/2020/1740938; settings: in vitro exposure; cited from earlier work
[6] = test system: P-glycoprotein; assay: Ex vivo intestinal transport of rhodamine 123 across sheep ileum (diffusion chamber model); settings: 4 h; for Peff M–S of Rho123 in the presence of the modulator: 0.5 µM Rho123, 5 µM DRM, 1.5 mM CNM–PGF or 50 µM LPM
Protocol: (§6) A series of ex vivo experiments were performed to evaluate the interaction of DRM, CNM–PGF, or LPM with ABC transporters. […] For this assay, sheep ileum samples were obtained from a local slaughterhouse (Ayacucho, Argentina). […] The incubation process was started immediately after obtaining the tissue. During the preparation and assembly process, intestinal tissue was always maintained between 0–4 °C. The tissue was then mounted vertically in a diffusion chamber with an internal surface area of 0.8 cm^2. […] Both the mucosal (M) and serosal (S) sides were filled with 7 and 5 mL of prewarmed and oxygenated Krebs buffer, respectively. […] During preparation, chambers were preincubated to slough off any dead cells, and during this period, the tissue were exposed in the donor side to the presence or absence of 5 µM of DRM; 1.5 mM of CNM–PGF; or 50 µM of LPM, a well-established P-gp modulator, which was used as a positive control [25, 26]. After a 20 min equilibration period, Krebs buffer was completely replaced with fresh medium fortified with 0.5 µM of Rho123 as a substrate to the M or S side of the chambers for measuring the absorption and secretion processes, respectively. Thus, Rho123 was incubated alone (control assays) or in the presence of DRM, CNM–PGF, or LPM. Tissues were incubated for 4 h, and each hour, aliquots of 1 mL were collected from the receptor side and replaced with fresh Krebs buffer.
(§7) Samples from the receptor side (1 mL) were mixed with 2 mL of distillated water to reach a final volume of 3 mL.
(§8) Values of unidirectional transepithelial effective permeability (Peff) (cm.s^−1) were calculated for each chamber according to the following equation: Peff=dC/dT1/A.C0
(§9) The appearance rate on the receiving compartment is dC/dT, calculated from the slope of the concentration versus time curve over a time period of 4 h (Rho123); A is the exposed area (cm^2) of the tissue in the Ussing chamber (0.8 cm^2), and C0 is the initial drug concentration (ng/mL) in the donor compartment. The efflux ratio (ER) was calculated as follows: ER=mean Peff S−M/mean Peff M−S
(§10) The intestinal absorption is represented by permeability in the M–S direction. The S–M side can also be used to measure permeability, in this case characterizes intestinal secretion. A higher Peff S–M compared to the Peff M–S is indicative of carrier-mediated transport.

[7] = test system: P-glycoprotein; assay: in vitro; settings: Corriedale and Texel crossbreed, sheep
Protocol: as §6, §7, §8, §9, §10

[8] = test system: resistant gastrointestinal nematodes; assay: Fecal egg count reduction test (FECRT), trial 2: DRM alone or with CNM–PGF or LPM; format: in vivo, lambs
Protocol: (§1) An in vivo assay was performed to evaluate the pharmacokinetics and the efficacy of DRM orally administered alone or in combination with CNM–PGF and LPM against resistant gastrointestinal nematodes in lambs. For the trial, 27 naturally infected Corriedale and Texel crossbreed lambs (average weight, 33 kg) were used. On day −1, all lambs were checked for EPG and tagged, and the individual body weights were recorded. As in the previous assay (Trial 2.1), the selection of the animals was based on EPG. […] Lambs were housed in a paddock with access to hay, commercial concentrates, and water ad libitum. Lambs were assigned into three experimental groups. Group A received DRM (0.2 mg/kg) as an oral emulsion (n = 7). Lambs in groups B and C received an emulsion containing DRM (a single dose of 0.2 mg/kg) and either LPM (n = 7) (three oral doses of 0.3 mg/kg, every 24 h) or CNM–PGF (n = 7) (three oral doses containing 72 and 64 mg/kg of CNM and PGF, respectively, every 24 h). Group D served as the untreated control (n = 6). As appropriate, the final concentrations of the active ingredients within the formulations were DRM 5%, CNM 18%, PGF 16%, LPM 30%. The compounds were diluted in Tween-80 11%, sesame oil 1–30%, and distilled water. The formulations were prepared using a similar method to that used in the previously described trial (Trial 2.1).
(§2) For the plasma disposition of DRM, jugular blood samples (2 mL) were collected into heparinized vacutainer tubes before treatment and at 3, 6, 9, 24, 30, 48, and 54 h and 3, 4, 7, 10, and 14 days post treatment. Blood samples were centrifuged at 2000× g for 15 min; the recovered plasma was kept in labeled vials and stored at −20 °C until the analysis of DRM by high performance liquid chromatography (HPLC). The effect of each treatment was indirectly estimated by collecting fecal samples on days −1 and 14 of administration to evaluate the FECR.
(§3) Data are expressed as mean ± standard deviation (SD). Rho123 transport across the ileum is presented as ng of Rho123 in the receptor side of the chamber. The plasma concentration versus time curves obtained after treatment of each animal were fitted with the PK Solutions 2.0 software (summit Research Services, Ashland, OH, USA) software. Pharmacokinetic parameters were determined using a noncompartmental model method. The evaluation of the FECR was calculated according to the following formula [33], with modifications: FECR %=100 × (1−T2/T1) where T1 and T2 are the arithmetic mean EPG counts in the treated group on days 0 and 14, respectively. The 90% confidence intervals were calculated following the method of reference.
The statistical analysis was performed using Prism 8.0 (GraphPad Software, San Diego, CA, USA). ANOVA or Kruskal–Wallis tests were used for the statistical comparison. […]

[9] = test system: Trichostrongylus spp.; assay: Efficacy by nematode genus (coprocultures), trial 1; format: in vivo; settings: day 14, oral, lambs n = 9
Protocol: (§4) The coadministration of DRM and CNM–PGF, both by an oral emulsion, was evaluated in lambs. The trial involved 35 Corriedale and Texel crossbred lambs (mean body weight, 26 kg) naturally infected with resistant gastrointestinal nematodes and was conducted in a sheep experimental unit (Estación Experimental INTA, Balcarce, Argentina). There, a parasite control program based on the intensive use of antiparasitic drugs has been implemented for many years, leading to anthelmintic resistance to MLs and benzimidazoles. Animals were selected based on worm egg per gram counts (EPG), with an average EPG count of 2102 ± 1662. Animals were kept in a paddock and fed hay ad libitum, together with commercial concentrate feed. All animals had free access to water. Lambs were assigned to four experimental groups sorted by EPG count. Group A received an emulsion containing DRM (single dose of 0.2 mg/kg) (n = 9). Group B received CNM–PGF orally as an emulsion (two doses of 100 mg/kg every 24 h) (n = 9). Lambs of Group C were treated with an emulsion containing both DRM and CNM–PGF on the first day, and the second day, they received an emulsion of CNM–PGF only (n = 9). Group D included untreated lambs (n = 8). The selected phytochemical dose was based on previous in vivo studies with other monoterpenes, such as thymol and carvone, which were administered to lambs at doses ranging from 100 to 150 mg/kg, without adverse effects. CNM–PGF was formulated as an emulsion composed of Tween-80/sesame oil (3:1) 20% at a final concentration of 15% CNM and 15% PGF. Briefly, the CNM–PGF emulsion was prepared using the high-energy ultrasonic method. CNM and PGF were mixed with sesame oil to form the oil phase. The oil phase was added dropwise to the aqueous phase containing Tween-80 and distillated water while stirring, and the emulsion formed was then subjected to ultrasonic emulsification for 15 min. […] To evaluate the effect of the treatment, individual fecal samples from all the lambs were collected on days −1, 7, and 14 of treatment, and the fecal egg count reduction (FECR) was calculated. […]

[10] = test system: Cooperia spp.; assay: as above; format: in vivo; settings: day 14, oral, lambs n = 9
Protocol: as §4

[11] = test system: Teladorsagia spp.; assay: as above; format: in vivo; settings: day 14, oral, lambs n = 9
Protocol: as §4

[12] = test system: Haemonchus spp.; assay: Efficacy by nematode genus, trial 2; format: in vivo, Haemonchus contortus; settings: day 14, oral, lambs n = 7
From the text: (§5) Lambs were assigned into three experimental groups. […] Group D served as the untreated control (n = 6).

[13] = test system: Trichostrongylus spp.; assay: Efficacy by nematode genus, trial 2; format: in vivo; settings: day 14, oral, lambs n = 7
From the text: as §5

[14] = test system: Teladorsagia spp.; assay: Efficacy by nematode genus, trial 2; format: in vivo; settings: day 14, oral, lambs n = 7
From the text: as §5

[15] = test system: resistant gastrointestinal nematodes; assay: Fecal egg count reduction test (FECRT), trial 1: DRM, CNM–PGF and their combination as oral emulsions; format: in vivo, lambs
Protocol: The coadministration of DRM and CNM–PGF, both by an oral emulsion, was evaluated in lambs. The trial involved 35 Corriedale and Texel crossbred lambs (mean body weight, 26 kg) naturally infected with resistant gastrointestinal nematodes and was conducted in a sheep experimental unit (Estación Experimental INTA, Balcarce, Argentina). […] Animals were kept in a paddock and fed hay ad libitum, together with commercial concentrate feed. All animals had free access to water. Lambs were assigned to four experimental groups sorted by EPG count. Group A received an emulsion containing DRM (single dose of 0.2 mg/kg) (n = 9). Group B received CNM–PGF orally as an emulsion (two doses of 100 mg/kg every 24 h) (n = 9). Lambs of Group C were treated with an emulsion containing both DRM and CNM–PGF on the first day, and the second day, they received an emulsion of CNM–PGF only (n = 9). Group D included untreated lambs (n = 8). […] CNM–PGF was formulated as an emulsion composed of Tween-80/sesame oil (3:1) 20% at a final concentration of 15% CNM and 15% PGF. Briefly, the CNM–PGF emulsion was prepared using the high-energy ultrasonic method. CNM and PGF were mixed with sesame oil to form the oil phase. The oil phase was added dropwise to the aqueous phase containing Tween-80 and distillated water while stirring, and the emulsion formed was then subjected to ultrasonic emulsification for 15 min. The same steps were performed for the DRM + CNM–PGF emulsion, the synthetic compound was added to the oil phase, and their final concentration was 0.03%. […] To evaluate the effect of the treatment, individual fecal samples from all the lambs were collected on days −1, 7, and 14 of treatment, and the fecal egg count reduction (FECR) was calculated. The coprocultures were prepared with 10 g of feces from a pool of each experimental group obtained on days −1 and 14. The nematode genera and species were identified through the third-stage larvae recovered from the coprocultures.
as §3
The statistical analysis was performed using Prism 8.0 (GraphPad Software, San Diego, CA, USA). ANOVA or Kruskal–Wallis tests were used for the statistical comparison. Tukey or Dunn tests were used for post hoc multiple comparisons. The egg counts obtained for each treatment on Day 14 were compared with the corresponding baseline counts on Day 0 using the Wilcoxon matched-pairs signed rank test. Differences were considered statistically significant at p < 0.05.

[16] = test system: Haemonchus spp.; assay: Efficacy by nematode genus (coprocultures), trial 1; format: in vivo, Haemonchus contortus; settings: day 14, oral, lambs n = 9
Protocol: as §4, with “8).” for “8). The selected phytochemical dose was based on previous in vivo studies with other monoterpenes, such as thymol and carvone, which were administered to lambs at doses ranging from 100 to 150 mg/kg, without adverse effects. CNM–PGF was formulated as an emulsion composed of Tween-80/sesame oil (3:1) 20% at a final concentration of 15% CNM and 15% PGF. Briefly, the CNM–PGF emulsion was prepared using the high-energy ultrasonic method. CNM and PGF were mixed with sesame oil to form the oil phase. The oil phase was added dropwise to the aqueous phase containing Tween-80 and distillated water while stirring, and the emulsion formed was then subjected to ultrasonic emulsification for 15 min.”

[17] = Plasma pharmacokinetics of DRM after oral administration alone or with CNM–PGF or LPM; settings: DRM 0.2 mg/kg oral emulsion; sheep n = 7; mean ± SD
Protocol: as §1, §2, §3

[18] = design: method as in PMID 11106995; settings: sheep; cited from earlier work
[19] = test system: P-glycoprotein
Protocol: as §6, §7, §8, §9, §10

[20] = day 14, lower-upper confidence limit

O=C/C=C/c1ccccc1 [CNM, cinnamaldehyde]
Oral LD50 [1]: approximately 2220 mg/kg
In vivo efficacy [2]: no in vivo efficacy was observed
In vivo anthelmintic effect [3]: failed to exert any in vivo anthelmintic effect

Cc1ccc(C(C)C)c(O)c1 [thymol]
Efficacy of single phytochemicals [4]: 0–47%

C=C(C)[C@H]1CC=C(C)CC1 [Limonene, limonene]
Survival rate of C. elegans [5]: 30%
FECR ([4]; long-term administration through feed, coadministered with a single dose of ivermectin, adult nematode number unaffected): 82%

CN(C)C(=O)C(CCN1CCC(O)(c2ccc(Cl)cc2)CC1)(c1ccccc1)c1ccccc1 [LPM, loperamide]
Peff M–S of Rho123 in the presence of the modulator [6]: 3.84 ± 1.02 ×10⁻⁶ cm/s

C=C(C)C1CC=C(C)C(=O)C1 (stereo not shown) [carvone]
Efficacy of single phytochemicals [4]: 0–47%

COC(=O)c1ccccc1-c1c2ccc(=N)cc-2oc2cc(N)ccc12 [Rho123, rhodamine 123]
Rho123 absorption, Peff M–S ([6]; 0.5 µM Rho123 alone (control)): 1.39 ± 0.343 ×10⁻⁶ cm/s
Rho123 secretion, Peff S–M ([6]; 0.5 µM Rho123 alone (control)): 11.1 ± 3.64 ×10⁻⁶ cm/s
efflux ratio at 4 h, 0.5 µM [7]: 10.3

CO[C@H]1C[C@H](O[C@H]2[C@H](C)O[C@@H](O[C@@H]3/C(C)=C/C[C@@H]4C[C@@H](C[C@]5(C=C[C@H](C)[C@@H](C6CCCCC6)O5)O4)OC(=O)[C@@H]4C=C(C)[C@@H](O)[C@H]5OC/C(=C\C=C\[C@@H]3C)[C@]54O)C[C@@H]2OC)O[C@@H](C)[C@@H]1O [DRM, doramectin]
Mean egg per gram (EPG) counts (±SD), Day 14 ([8]; 14 days after oral DRM 0.2 mg/kg, LPM three doses of 0.3 mg/kg, CNM–PGF three doses of 72 and 64 mg/kg, every 24 h, lambs n = 7): 694 ± 944 EPG and 694 ± 944 ^aB EPG
Mean egg per gram (EPG) counts (±SD), Day 0 ([8]; baseline before treatment, lambs n = 7, mean ± SD): 1586 ± 984 ^aA EPG
FECR (LCL-UCL), 90% confidence interval [8, 20]: (9–88) %
FECR (%) ([8]; day 14, oral emulsion, lambs n = 7): 56%
Efficacy (%) against Trichostrongylus spp. [9]: 100%
Efficacy (%) against Cooperia spp. [10]: 100%
Efficacy (%) against Teladorsagia spp. [11]: 100%
Peff M–S of Rho123 in the presence of the modulator [6]: 3.83 ± 1.87 ×10⁻⁶ cm/s
Efficacy (%) against Haemonchus spp. [12]: 0%
Efficacy (%) against Trichostrongylus spp. [13]: 100%
Efficacy (%) against Teladorsagia spp. [14]: 82%
Mean egg per gram (EPG) counts (±SD), Day 14 ([15]; 14 days after oral administration, DRM 0.2 mg/kg single dose, CNM–PGF two doses of 100 mg/kg every 24 h, lambs n = 9): 910 ± 2548 EPG and 910 ± 2548 ^abB EPG
Mean egg per gram (EPG) counts (±SD), Day 0 ([15]; baseline before treatment, lambs n = 9, mean ± SD): 2716 ± 2641 ^aA EPG
Prevalence of egg count negativization (percentage of animals with an egg count of zero) ([15]; day 14): 40%
FECR (LCL-UCL), 90% confidence interval [15, 20]: (0–98) %
FECR (%) ([15]; day 14, oral emulsion, lambs n = 9): 66%
Efficacy (%) against Haemonchus spp. [16]: 0%
AUC0–t of DRM in plasma [17]: 90.84 ± 33.61 ^a ng d/mL
Cmax of DRM in plasma [17]: 25.76 ± 10.01 ^a ng/mL
T max of DRM in plasma [17]: 0.93 ± 0.47 ^a days
T ½ el (elimination half-life) of DRM [17]: 2.19 ± 0.41 ^a days
Absolute oral bioavailability [18]: 25%
Efflux ratio (ER) of Rho123 in the presence of the modulator [19]: 4.66
